Assay results taken from patent US20170050957A1, “4-AMINO-6-(HETEROCYCLIC)PICOLINATES AND 6-AMINO-2-(HETEROCYCLIC)PYRIMIDINE-4-CARBOXYLATES AND THEIR USE AS HERBICIDES” (Dow AgroSciences LLC, priority 2013, published 2017).
Where two headings read alike, the source gives them in different places.

Experiments:
[1] = system: Key Broadleaf Weed and Crop Species; assay: Post-emergent Test II herbicidal activity (Table 15); type: in vivo; details: post-emergence, 336 h, 14 d; for pest or weed control at 35 g/ha: 35 g ai/ha; for pest or weed control at 70 g/ha: 70 g ai/ha; for pest or weed control at 140 g/ha: 140 g ai/ha
Outline: (§1)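 Visual injury rating (0 = none, 100% = complete kill) made 14 d after treatment, relative to untreated plants. Compounds in an acetone/DMSO/aqueous crop-oil/surfactant spray, at top rate and serial 1/2×-1/16× rates, were applied at 187 L/ha overhead to first-second true leaf plants raised 7-21 d in greenhouse.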

[2] = system: Key Grass and Sedge Weeds as well as Grass Crops; assay: Post-emergent Test II herbicidal activity (Table 16); type: in vivo; details: post-emergence, 336 h, 14 d; for pest or weed control at 35 g/ha: 35 g ai/ha; for pest or weed control at 70 g/ha: 70 g ai/ha; for pest or weed control at 140 g/ha: 140 g ai/ha
Outline: as §1

[3] = Abutilon theophrasti, velvetleaf (Abutilon theophrasti), read-out: Visual Growth Reduction (%) 14 Days After Application, ABUTH
[4] = Amaranthus retroflexus, redroot pigweed (Amaranthus retroflexus), read-out: Visual Growth Reduction (%) 14 Days After Application, AMARE
[5] = Brassica napus, oilseed rape, canola (Brassica napus), read-out: Visual Growth Reduction (%) 14 Days After Application, BRSNN
[6] = Chenopodium album, lambsquarters (Chenopodium album), read-out: Visual Growth Reduction (%) 14 Days After Application, CHEAL
[7] = Euphorbia heterophylla, wild poinsettia (Euphorbia heterophylla), read-out: Visual Growth Reduction (%) 14 Days After Application, EPHHL
[8] = Helianthus annuus, sunflower (Helianthus annuus), read-out: Visual Growth Reduction (%) 14 Days After Application, HELAN
[9] = Cyperus esculentus, yellow nutsedge (Cyperus esculentus), read-out: Visual Growth Reduction (%) 14 Days After Application, CYPES
[10] = Echinochloa crus-galli, barnyardgrass (Echinochloa crus-galli), read-out: Visual Growth Reduction (%) 14 Days After Application, ECHCG
[11] = Oryza sativa, rice (Oryza sativa), read-out: Visual Growth Reduction (%) 14 Days After Application, ORYSA
[12] = Setaria faberi, giant foxtail (Setaria faberi), read-out: Visual Growth Reduction (%) 14 Days After Application, SETFA
[13] = Triticum aestivum, wheat, spring (Triticum aestivum), read-out: Visual Growth Reduction (%) 14 Days After Application, TRZAS
[14] = Zea mays, maize, corn (Zea mays), read-out: Visual Growth Reduction (%) 14 Days After Application, ZEAMX

COC(=O)c1nc(-c2ccc(Cl)c3[nH]ccc23)nc(N)c1OC [Compound 1.45]
pest or weed control at 35 g/ha [1, 3]: 0 to 29%
pest or weed control at 70 g/ha [1, 3]: 0 to 29%
pest or weed control at 140 g/ha [1, 3]: 0 to 29%
pest or weed control at 35 g/ha [1, 4]: 0 to 29%
pest or weed control at 70 g/ha [1, 4]: 0 to 29%
pest or weed control at 140 g/ha [1, 4]: 45 to 59%
pest or weed control at 35 g/ha [1, 5]: 0 to 29%
pest or weed control at 70 g/ha [1, 5]: 0 to 29%
pest or weed control at 140 g/ha [1, 5]: 0 to 29%
pest or weed control at 35 g/ha [1, 6]: 0 to 29%
pest or weed control at 70 g/ha [1, 6]: 0 to 29%
pest or weed control at 140 g/ha [1, 6]: 0 to 29%
pest or weed control at 35 g/ha [1, 7]: 0 to 29%
pest or weed control at 70 g/ha [1, 7]: 0 to 29%
pest or weed control at 140 g/ha [1, 7]: 0 to 29%
pest or weed control at 35 g/ha [1, 8]: 0 to 29%
pest or weed control at 70 g/ha [1, 8]: 0 to 29%
pest or weed control at 140 g/ha [1, 8]: 30 to 44%
pest or weed control at 35 g/ha [2, 9]: 0 to 29%
pest or weed control at 70 g/ha [2, 9]: 0 to 29%
pest or weed control at 140 g/ha [2, 9]: 0 to 29%
pest or weed control at 35 g/ha [2, 10]: 0 to 29%
pest or weed control at 70 g/ha [2, 10]: 0 to 29%
pest or weed control at 140 g/ha [2, 10]: 0 to 29%
pest or weed control at 35 g/ha [2, 11]: 0 to 29%
pest or weed control at 70 g/ha [2, 11]: 0 to 29%
pest or weed control at 140 g/ha [2, 11]: 0 to 29%
pest or weed control at 35 g/ha [2, 12]: 0 to 29%
pest or weed control at 70 g/ha [2, 12]: 0 to 29%
pest or weed control at 140 g/ha [2, 12]: 0 to 29%
pest or weed control at 35 g/ha [2, 13]: 0 to 29%
pest or weed control at 70 g/ha [2, 13]: 0 to 29%
pest or weed control at 140 g/ha [2, 13]: 0 to 29%
pest or weed control at 35 g/ha [2, 14]: 0 to 29%
pest or weed control at 70 g/ha [2, 14]: 0 to 29%
pest or weed control at 140 g/ha [2, 14]: 0 to 29%
melting point: 226 °C
